From patent US9815846B2 (Merck Sharp & Dohme Corp., priority 2014, dated 2017) come the findings set out here.

This experiment has as its target human TrkA receptor (Homo sapiens (Human), UniProt P04629). Kind of experiment: DiscoverX PathHunter TrkA functional assay (NGF-stimulated U2OS cells). Type of experiment: cell-based. As to conditions: U2OS cells expressing human TrkA-PK, Shc1-EA and p75NTR; compound 1 h, then NGF at ~80% of maximal response for 3 h; luminescence.

Chain of human TrkA receptor (P04629 33-796): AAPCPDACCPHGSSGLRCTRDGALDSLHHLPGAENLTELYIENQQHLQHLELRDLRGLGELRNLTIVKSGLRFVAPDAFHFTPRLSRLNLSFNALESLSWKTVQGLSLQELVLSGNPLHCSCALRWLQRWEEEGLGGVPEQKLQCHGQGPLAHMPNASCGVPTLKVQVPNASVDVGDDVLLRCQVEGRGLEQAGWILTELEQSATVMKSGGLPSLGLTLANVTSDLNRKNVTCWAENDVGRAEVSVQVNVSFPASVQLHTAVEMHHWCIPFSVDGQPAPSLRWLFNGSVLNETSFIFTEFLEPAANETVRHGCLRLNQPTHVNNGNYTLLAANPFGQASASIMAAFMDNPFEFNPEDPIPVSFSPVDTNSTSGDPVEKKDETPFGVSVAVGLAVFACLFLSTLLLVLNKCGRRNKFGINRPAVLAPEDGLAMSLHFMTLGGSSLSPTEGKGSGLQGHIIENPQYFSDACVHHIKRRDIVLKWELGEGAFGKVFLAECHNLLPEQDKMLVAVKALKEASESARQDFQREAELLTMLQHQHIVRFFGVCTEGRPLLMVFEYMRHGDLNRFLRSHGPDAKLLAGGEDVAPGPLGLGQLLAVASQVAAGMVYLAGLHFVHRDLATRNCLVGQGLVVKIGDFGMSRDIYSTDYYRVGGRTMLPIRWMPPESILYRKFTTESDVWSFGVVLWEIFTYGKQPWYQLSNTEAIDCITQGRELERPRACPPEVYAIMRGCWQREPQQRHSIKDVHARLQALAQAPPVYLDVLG
Description: TrkA functional activity was measured using a DiscoverX PathHunter assay. In this assay, U2OS cells express the human TrkA receptor as a fusion with the weakly complementing fragment of B-galactosidase, which DiscoverX calls “Prolink (PK)”; additionally, Shcl is fused with a larger fragment, which is called “Enzyme Acceptor (EA)”. Activation of the TrkA receptor, upon NGF addition, results in the kinase domain being phosphorylated, resulting in subsequent recruitment of Shcl-EA protein. That recruitment results in an active B-galactosidase enzyme that is detected by addition of a chemiluminescent substrate. The human p75^NTR protein was also expressed as a co-receptor for NGF.
All reagents were purchased from DiscoverX, except for the receptor agonists (NGF, BDNF, NT3) which were purchased from Peprotech. Cells were expanded and frozen into cryovials, and stored in the vapor phase of liquid nitrogen, and thawed immediately before use. Thawed cells were added to a 384-well plate at 7500 cells/well, and allowed to incubate overnight. Compound at various concentrations was added the following morning and allowed to incubate on cells for 1 h. Then, NGF was added at a concentration sufficient to elicit ˜80% of a maximal response and allowed to incubate for 3 h at ambient temperature. DiscoverX PathHunter detection reagent was then added and the plate was further incubated for 1 h in the dark. The plate was then read via luminescence on the Perkin Elmer Envision.

In the case of `Cn1ccc(-c2cc(C(=O)Nc3cnc(Cc4nnc[nH]4)nc3-c3ccccc3)c(F)cc2C(F)(F)F)n1` [Example 129, N-(2-((4H-1,2,4-Triazol-3-yl)methyl)-4-phenylpyrimidin-5-yl)-2-fluoro-5-(1-methyl-1H-pyrazol-3-yl)-4-(trifluoromethyl)benzamide], the 50% inhibitory concentration (IC50) came out at 0.25 nM.
The figure for `Cn1ccc(-c2cc(C(=O)Nc3cnc(C(N)C(N)=O)nc3-c3ccccc3)c(F)cc2C(F)(F)F)n1` (centres unmarked) [Example 130, N-(2-(1,2-Diamino-2-oxoethyl)-4-phenylpyrimidin-5-yl)-2-fluoro-5-(1-methyl-1H-pyrazol-3-yl)-4-(trifluoromethyl)benzamide] is 4.6 nM; for `Cn1ccc(-c2cc(C(=O)Nc3cnc(C4NC(=O)NC4=O)nc3-c3ccccc3)c(F)cc2C(F)(F)F)n1` (centres unmarked) [Example 131, N-(2-(2,5-Dioxoimidazolidin-4-yl)-4-phenylpyrimidin-5-yl)-2-fluoro-5-(1-methyl-1H-pyrazol-3-yl)-4-(trifluoromethyl)benzamide] it is 4.4 nM; for `CC(=O)NCc1cccc(-c2nc(C)ncc2NC(=O)c2cc(-c3ccn(C)n3)c(C(F)(F)F)cc2F)c1` [Example 132, N-(4-(3-(Acetamidomethyl)phenyl)-2-methylpyrimidin-5-yl)-2-fluoro-5-(1-methyl-1H-pyrazol-3-yl)-4-(trifluoromethyl)benzamide] it is 16 nM.
The figure for `CC(=O)Nc1cccc(-c2nc(C)ncc2NC(=O)c2cc(-c3ccn(C)n3)c(C(F)(F)F)cc2F)c1` [Example 133, N-(4-(3-acetamidophenyl)-2-methylpyrimidin-5-yl)-2-fluoro-5-(1-methyl-1H-pyrazol-3-yl)-4-(trifluoromethyl)benzamide] is 4.6 nM.
The figure for `Cc1ncc(NC(=O)c2cc(-c3ccn(C)n3)c(C(F)(F)F)cc2F)c(-c2ccccc2CCN)n1` [Example 134, N-(4-(2-(2-aminoethyl)phenyl)-2-methylpyrimidin-5-yl)-2-fluoro-5-(1-methyl-1H-pyrazol-3-yl)-4-(trifluoromethyl)benzamide] is 7 nM; for `Cc1ncc(NC(=O)c2cc(-c3ccn(C)n3)c(C(F)(F)F)cc2F)c(-c2ccccc2CCN(C)C)n1` [Example 135, N-(4-(2-(2-(Dimethylamino)ethyl)phenyl)-2-methylpyrimidin-5-yl)-2-fluoro-5-(1-methyl-1H-pyrazol-3-yl)-4-(trifluoromethyl)benzamide] it is 0.57 nM.
In the case of `Cc1ncc(NC(=O)c2cc(-c3ccn(C)n3)c(C(F)(F)F)cc2F)c(-c2ccccc2CO)n1` [Example 136, 2-Fluoro-N-(4-(2-(hydroxymethyl)phenyl)-2-methylpyrimidin-5-yl)-5-(1-methyl-1H-pyrazol-3-yl)-4-(trifluoromethyl)benzamide], the IC50 was 4.4 nM.
The figure for `O=C(Nc1cc(-c2csc(C3CC3)n2)cnc1N1CCC[C@@H]1CO)c1cc(-c2ncccn2)c(C(F)(F)F)cc1F` [Example 137, (R)—N-(5-(2-Cyclopropylthiazol-4-yl)-2-(2-(hydroxymethyl)pyrrolidin-1-yl)pyridin-3-yl)-2-fluoro-5-(pyrimidin-2-yl)-4-(trifluoromethyl)benzamide] is 2.9 nM; for `Cn1ccc(-c2cnc(N3CCC[C@@H]3CO)c(NC(=O)c3cc(-c4ncccn4)c(C(F)(F)F)cc3F)c2)n1` [Example 138, (R)-2-fluoro-N-(2-(2-(hydroxymethyl)pyrrolidin-1-yl)-5-(1-methyl-1H-pyrazol-3-yl)pyridin-3-yl)-5-(pyrimidin-2-yl)-4-(trifluoromethyl)benzamide] it is 27 nM.
Compound `O=C(Nc1cc2c(nc1-c1ccccc1)CCNC2=O)c1cc(-c2ncccn2)c(C(F)(F)F)cc1F` [Example 139, 2-Fluoro-N-(5-oxo-2-phenyl-5,6,7,8-tetrahydro-1,6-naphthyridin-3-yl)-5-(pyrimidin-2-yl)-4-(trifluoromethyl)benzamide] displayed an IC50 of 1.4 nM.
